Laboratory results reported in the NIST ThermoML archive (doi:10.1016/j.fluid.2016.02.031).
± gives the expanded uncertainty stated by the source.

Experiment: xn = mol fraction of the nth substance listed
Settings: 100 kPa, Liquid; for viscosity: Concentric cylinders viscometry; for mass density: Vibrating tube method

c1ccncc1 [pyridine] + CCC(C)=O
Settings | mass density [kg/m3] | viscosity [mPa·s]
288.15 K, x1 = 0.1006 | 827.262 ± 0.2 | 0.4555 ± 0.0067
288.15 K, x1 = 0.2019 | 844.704 ± 0.2 | 0.4928 ± 0.0071
288.15 K, x1 = 0.3002 | 861.833 ± 0.2 | 0.5309 ± 0.0074
288.15 K, x1 = 0.4004 | 879.307 ± 0.2 | 0.5771 ± 0.0079
288.15 K, x1 = 0.4999 | 896.875 ± 0.19 | 0.629 ± 0.0084
288.15 K, x1 = 0.597 | 914.2 ± 0.19 | 0.6859 ± 0.009
288.15 K, x1 = 0.6998 | 932.635 ± 0.19 | 0.7603 ± 0.0097
288.15 K, x1 = 0.7945 | 949.796 ± 0.19 | 0.8375 ± 0.01
288.15 K, x1 = 0.8962 | 968.632 ± 0.18 | 0.9269 ± 0.011
288.15 K, x1 = 1 | 988.077 ± 0.18 | 1.053 ± 0.013
293.15 K, x1 = 0.1006 | 822.086 ± 0.2 | 0.4381 ± 0.0066
293.15 K, x1 = 0.2019 | 839.557 ± 0.2 | 0.4718 ± 0.0069
293.15 K, x1 = 0.3002 | 856.714 ± 0.2 | 0.5088 ± 0.0072
293.15 K, x1 = 0.4004 | 874.211 ± 0.2 | 0.5501 ± 0.0076
293.15 K, x1 = 0.4999 | 891.802 ± 0.19 | 0.5983 ± 0.0081
293.15 K, x1 = 0.597 | 909.146 ± 0.19 | 0.6505 ± 0.0086
293.15 K, x1 = 0.6998 | 927.59 ± 0.19 | 0.7177 ± 0.0093
293.15 K, x1 = 0.7945 | 944.768 ± 0.19 | 0.7876 ± 0.01
293.15 K, x1 = 0.8962 | 963.61 ± 0.18 | 0.8683 ± 0.011
293.15 K, x1 = 1 | 983.053 ± 0.18 | 0.9801 ± 0.012
298.15 K, x1 = 0.1006 | 816.889 ± 0.21 | 0.4203 ± 0.0064
298.15 K, x1 = 0.2019 | 834.388 ± 0.2 | 0.4516 ± 0.0067
298.15 K, x1 = 0.3002 | 851.571 ± 0.2 | 0.4867 ± 0.007
298.15 K, x1 = 0.4004 | 869.094 ± 0.2 | 0.5243 ± 0.0074
298.15 K, x1 = 0.4999 | 886.708 ± 0.2 | 0.5689 ± 0.0078
298.15 K, x1 = 0.597 | 904.074 ± 0.19 | 0.6164 ± 0.0083
298.15 K, x1 = 0.6998 | 922.541 ± 0.19 | 0.6779 ± 0.0089
298.15 K, x1 = 0.7945 | 939.726 ± 0.19 | 0.7418 ± 0.0095
298.15 K, x1 = 0.8962 | 958.58 ± 0.19 | 0.8147 ± 0.01
298.15 K, x1 = 1 | 978.02 ± 0.18 | 0.9155 ± 0.011
303.15 K, x1 = 0.1006 | 811.664 ± 0.21 | 0.4019 ± 0.0062
303.15 K, x1 = 0.2019 | 829.195 ± 0.2 | 0.4317 ± 0.0065
303.15 K, x1 = 0.3002 | 846.407 ± 0.2 | 0.4649 ± 0.0068
303.15 K, x1 = 0.4004 | 863.96 ± 0.2 | 0.5 ± 0.0072
303.15 K, x1 = 0.4999 | 881.597 ± 0.2 | 0.5409 ± 0.0075
303.15 K, x1 = 0.597 | 898.986 ± 0.19 | 0.5851 ± 0.008
303.15 K, x1 = 0.6998 | 917.474 ± 0.19 | 0.6402 ± 0.0085
303.15 K, x1 = 0.7945 | 934.676 ± 0.19 | 0.6995 ± 0.0091
303.15 K, x1 = 0.8962 | 953.536 ± 0.19 | 0.7669 ± 0.0097
303.15 K, x1 = 1 | 972.979 ± 0.18 | 0.8568 ± 0.011
308.15 K, x1 = 0.1006 | 806.406 ± 0.21 | 0.3835 ± 0.0061
308.15 K, x1 = 0.2019 | 823.972 ± 0.2 | 0.4117 ± 0.0063
308.15 K, x1 = 0.3002 | 841.216 ± 0.2 | 0.4432 ± 0.0066
308.15 K, x1 = 0.4004 | 858.797 ± 0.2 | 0.4758 ± 0.0069
308.15 K, x1 = 0.4999 | 876.465 ± 0.2 | 0.5142 ± 0.0073
308.15 K, x1 = 0.597 | 893.873 ± 0.19 | 0.555 ± 0.0077
308.15 K, x1 = 0.6998 | 912.381 ± 0.19 | 0.6063 ± 0.0082
308.15 K, x1 = 0.7945 | 929.606 ± 0.19 | 0.6588 ± 0.0087
308.15 K, x1 = 0.8962 | 948.477 ± 0.19 | 0.7219 ± 0.0093
308.15 K, x1 = 1 | 967.923 ± 0.18 | 0.8032 ± 0.01
313.15 K, x1 = 0.1006 | 801.119 ± 0.21 | 0.3653 ± 0.0059
313.15 K, x1 = 0.2019 | 818.72 ± 0.21 | 0.392 ± 0.0062
313.15 K, x1 = 0.3002 | 835.996 ± 0.2 | 0.4219 ± 0.0064
313.15 K, x1 = 0.4004 | 853.612 ± 0.2 | 0.4528 ± 0.0067
313.15 K, x1 = 0.4999 | 871.309 ± 0.2 | 0.4887 ± 0.007
313.15 K, x1 = 0.597 | 888.742 ± 0.2 | 0.5265 ± 0.0074
313.15 K, x1 = 0.6998 | 907.282 ± 0.19 | 0.5741 ± 0.0078
313.15 K, x1 = 0.7945 | 924.517 ± 0.19 | 0.6226 ± 0.0083
313.15 K, x1 = 0.8962 | 943.403 ± 0.19 | 0.6809 ± 0.0089
313.15 K, x1 = 1 | 962.857 ± 0.18 | 0.7546 ± 0.0096
318.15 K, x1 = 0.1006 | 795.798 ± 0.21 | 0.3502 ± 0.0058
318.15 K, x1 = 0.2019 | 813.436 ± 0.21 | 0.3728 ± 0.006
318.15 K, x1 = 0.3002 | 830.749 ± 0.2 | 0.401 ± 0.0062
318.15 K, x1 = 0.4004 | 848.397 ± 0.2 | 0.4308 ± 0.0065
318.15 K, x1 = 0.4999 | 866.128 ± 0.2 | 0.4642 ± 0.0068
318.15 K, x1 = 0.597 | 883.587 ± 0.2 | 0.4996 ± 0.0071
318.15 K, x1 = 0.6998 | 902.151 ± 0.19 | 0.544 ± 0.0076
318.15 K, x1 = 0.7945 | 919.408 ± 0.19 | 0.5893 ± 0.008
318.15 K, x1 = 0.8962 | 938.312 ± 0.19 | 0.6417 ± 0.0085
318.15 K, x1 = 1 | 957.777 ± 0.18 | 0.7103 ± 0.0092
323.15 K, x1 = 0.1006 | 790.436 ± 0.21 | 0.3328 ± 0.0056
323.15 K, x1 = 0.2019 | 808.12 ± 0.21 | 0.3539 ± 0.0058
323.15 K, x1 = 0.3002 | 825.467 ± 0.2 | 0.3807 ± 0.0061
323.15 K, x1 = 0.4004 | 843.151 ± 0.2 | 0.4095 ± 0.0063
323.15 K, x1 = 0.4999 | 860.918 ± 0.2 | 0.4409 ± 0.0066
323.15 K, x1 = 0.597 | 878.406 ± 0.2 | 0.4742 ± 0.0069
323.15 K, x1 = 0.6998 | 896.999 ± 0.19 | 0.5159 ± 0.0073
323.15 K, x1 = 0.7945 | 914.28 ± 0.19 | 0.5586 ± 0.0077
323.15 K, x1 = 0.8962 | 933.202 ± 0.19 | 0.6072 ± 0.0082
323.15 K, x1 = 1 | 952.682 ± 0.18 | 0.6698 ± 0.0088
328.15 K, x1 = 0.1006 | 785.039 ± 0.21 | 0.3157 ± 0.0055
328.15 K, x1 = 0.2019 | 802.762 ± 0.21 | 0.3354 ± 0.0057
328.15 K, x1 = 0.3002 | 820.152 ± 0.21 | 0.361 ± 0.0059
328.15 K, x1 = 0.4004 | 837.875 ± 0.2 | 0.3888 ± 0.0061
328.15 K, x1 = 0.4999 | 855.68 ± 0.2 | 0.4185 ± 0.0064
328.15 K, x1 = 0.597 | 873.198 ± 0.2 | 0.4502 ± 0.0067
328.15 K, x1 = 0.6998 | 891.821 ± 0.2 | 0.4899 ± 0.007
328.15 K, x1 = 0.7945 | 909.127 ± 0.19 | 0.5297 ± 0.0074
328.15 K, x1 = 0.8962 | 928.07 ± 0.19 | 0.5771 ± 0.0079
328.15 K, x1 = 1 | 947.564 ± 0.18 | 0.6329 ± 0.0084
333.15 K, x1 = 0.1006 | 779.596 ± 0.21 | 0.2989 ± 0.0054
333.15 K, x1 = 0.2019 | 797.367 ± 0.21 | 0.3189 ± 0.0055
333.15 K, x1 = 0.3002 | 814.798 ± 0.21 | 0.3422 ± 0.0057
333.15 K, x1 = 0.4004 | 832.563 ± 0.2 | 0.3696 ± 0.006
333.15 K, x1 = 0.4999 | 850.405 ± 0.2 | 0.3985 ± 0.0062
333.15 K, x1 = 0.597 | 867.959 ± 0.2 | 0.4291 ± 0.0065
333.15 K, x1 = 0.6998 | 886.618 ± 0.2 | 0.4668 ± 0.0068
333.15 K, x1 = 0.7945 | 903.947 ± 0.19 | 0.5039 ± 0.0072
333.15 K, x1 = 0.8962 | 922.92 ± 0.19 | 0.549 ± 0.0076
333.15 K, x1 = 1 | 942.433 ± 0.18 | 0.5997 ± 0.0081
